# In patent US12077503B2, “Substituted cyclic amides and their use as herbicides” (FMC CORPORATION, priority 2015, dated 2024):
# Key:
# Type in all cases: in vivo
# [1] = tested on: barnyardgrass (Echinochloa crus-galli); assay: Test G Pre-Emergence Protocol; conditions: Echinochloa crus-galli, pre-emergence, 312 h, evaluated after 13 days
# In short: (§1)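 Spraying took place one day after sowing, at 15.625, 62.5 or 250 g/ha, using an acetone/water (50:50) spray solution containing 0.5% Tween 20. Plants were kept under glasshouse conditions (24/16 °C, 14 h light, 65% humidity, watered twice daily), and injury was rated 0–100 at day 13.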
# corn (Zea mays) [2] = assay: Test G Pre-Emergence Protocol; conditions: Zea mays, pre-emergence, 312 h, evaluated after 13 days
# In short: as §1
# [3] = tested on: giant foxtail (Setaria faberi); assay: Test G Pre-Emergence Protocol; conditions: Setaria faberi, pre-emergence, 312 h, evaluated after 13 days
# In short: as §1
# [4] = tested on: ivy-leaved morning glory (Ipomoea hederacea); assay: Test G Pre-Emergence Protocol; conditions: Ipomoea, pre-emergence, 312 h, evaluated after 13 days
# In short: as §1
# [5] = tested on: redroot pigweed (Amaranthus retroflexus); assay: Test G Pre-Emergence Protocol; conditions: Amaranthus retroflexus, pre-emergence, 312 h, evaluated after 13 days
# In short: as §1
# [6] = tested on: velvetleaf (Abutilon theophrasti); assay: Test G Pre-Emergence Protocol; conditions: Abutilon theophrasti, pre-emergence, 312 h, evaluated after 13 days
# In short: as §1
# [7] = tested on: barnyardgrass (Echinochloa crus-galli); assay: Test G Post-Emergence Protocol; conditions: Echinochloa crus-galli, post-emergence, 312 h, read-out: Barnyardgrass damage rating
# In short: (§2)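 Eight days post-sowing, plants received a spray of test compound (acetone/water 50:50, 0.5% Tween 20) at 15.625, 62.5 or 250 g/ha. Glasshouse regime thereafter: 24/16 °C, 14 h light, 65% humidity. Assessment after 13 days on a 0–100 damage scale.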
# corn (Zea mays) [8] = assay: Test G Post-Emergence Protocol; conditions: Zea mays, post-emergence, 312 h, read-out: Corn damage rating
# In short: as §2
# [9] = tested on: giant foxtail (Setaria faberi); assay: Test G Post-Emergence Protocol; conditions: Setaria faberi, post-emergence, 312 h, read-out: Foxtail, Giant damage rating
# In short: as §2
# [10] = tested on: ivy-leaved morning glory (Ipomoea hederacea); assay: Test G Post-Emergence Protocol; conditions: Ipomoea, post-emergence, 312 h, read-out: Morningglory, Ivy-leaved damage rating
# In short: as §2
# [11] = tested on: redroot pigweed (Amaranthus retroflexus); assay: Test G Post-Emergence Protocol; conditions: Amaranthus retroflexus, post-emergence, 312 h, read-out: Pigweed, Redroot damage rating
# In short: as §2
# [12] = tested on: velvetleaf (Abutilon theophrasti); assay: Test G Post-Emergence Protocol; conditions: Abutilon theophrasti, post-emergence, 312 h, read-out: Velvetleaf damage rating
# In short: as §2
# [13] = 15.625 g ai/ha, evaluated after 13 days (100=total damage to plant; 0=no damage to plant)
# [14] = 62.5 g ai/ha, evaluated after 13 days, 100=total damage to plant, 0=no damage to plant
# [15] = 250 g ai/ha, evaluated after 13 days, 100=total damage to plant, 0=no damage to plant
smiles,measurement,setting,value
CN1C[C@H](c2ccc(C(F)F)cc2)[C@@H](C(=O)Nc2cnccc2C(F)(F)F)C1=O (racemic) [Compound 1743],pest or weed control at 15.625 g/ha,"[1]; 15.625 g ai/ha, read-out: Barnyardgrass damage rating (100=total damage to plant; 0=no damage to plant)",30%
same,pest or weed control at 62.5 g/ha,"[1]; 62.5 g ai/ha, 100=total damage to plant, 0=no damage to plant, read-out: Barnyardgrass damage rating",40%
same,pest or weed control at 250 g/ha,"[1]; 250 g ai/ha, read-out: Barnyardgrass damage rating (100=total damage to plant; 0=no damage to plant)",80%
same,plant injury at 15.625 g/ha,"corn (Zea mays) [2]; 15.625 g ai/ha, read-out: Corn damage rating (100=total damage to plant; 0=no damage to plant)",30%
same,plant injury at 62.5 g/ha,"corn (Zea mays) [2]; 62.5 g ai/ha, 100=total damage to plant, 0=no damage to plant, read-out: Corn damage rating",20%
same,plant injury at 250 g/ha,"corn (Zea mays) [2]; 250 g ai/ha, read-out: Corn damage rating (100=total damage to plant; 0=no damage to plant)",80%
same,pest or weed control at 15.625 g/ha,"[3]; 15.625 g ai/ha, read-out: Foxtail, Giant damage rating (100=total damage to plant; 0=no damage to plant)",30%
same,pest or weed control at 62.5 g/ha,"[3]; 62.5 g ai/ha, 100=total damage to plant, 0=no damage to plant, read-out: Foxtail, Giant damage rating",90%
same,pest or weed control at 250 g/ha,"[3]; 250 g ai/ha, read-out: Foxtail, Giant damage rating (100=total damage to plant; 0=no damage to plant)",90%
same,pest or weed control at 15.625 g/ha,"[4]; 15.625 g ai/ha, read-out: Morningglory, Ivy-leaved damage rating (100=total damage to plant; 0=no damage to plant)",0%
same,pest or weed control at 62.5 g/ha,"[4]; 62.5 g ai/ha, 100=total damage to plant, 0=no damage to plant, read-out: Morningglory, Ivy-leaved damage rating",60%
same,pest or weed control at 250 g/ha,"[4]; 250 g ai/ha, read-out: Morningglory, Ivy-leaved damage rating (100=total damage to plant; 0=no damage to plant)",70%
same,pest or weed control at 15.625 g/ha,"[5]; 15.625 g ai/ha, read-out: Pigweed, Redroot damage rating (100=total damage to plant; 0=no damage to plant)",20%
same,pest or weed control at 62.5 g/ha,"[5]; 62.5 g ai/ha, 100=total damage to plant, 0=no damage to plant, read-out: Pigweed, Redroot damage rating",60%
same,pest or weed control at 250 g/ha,"[5]; 250 g ai/ha, read-out: Pigweed, Redroot damage rating (100=total damage to plant; 0=no damage to plant)",80%
same,pest or weed control at 15.625 g/ha,"[6]; 15.625 g ai/ha, read-out: Velvetleaf damage rating (100=total damage to plant; 0=no damage to plant)",10%
same,pest or weed control at 62.5 g/ha,"[6]; 62.5 g ai/ha, 100=total damage to plant, 0=no damage to plant, read-out: Velvetleaf damage rating",50%
same,pest or weed control at 250 g/ha,"[6]; 250 g ai/ha, read-out: Velvetleaf damage rating (100=total damage to plant; 0=no damage to plant)",80%
same,pest or weed control at 15.625 g/ha,[7]; [13],0%
same,pest or weed control at 62.5 g/ha,[7]; [14],0%
same,pest or weed control at 250 g/ha,[7]; [15],80%
same,plant injury at 15.625 g/ha,corn (Zea mays) [8]; [13],0%
same,plant injury at 62.5 g/ha,corn (Zea mays) [8]; [14],0%
same,plant injury at 250 g/ha,corn (Zea mays) [8]; [15],60%
same,pest or weed control at 15.625 g/ha,[9]; [13],20%
same,pest or weed control at 62.5 g/ha,[9]; [14],70%
same,pest or weed control at 15.625 g/ha,[10]; [13],0%
same,pest or weed control at 62.5 g/ha,[10]; [14],0%
same,pest or weed control at 250 g/ha,[10]; [15],30%
same,pest or weed control at 15.625 g/ha,[11]; [13],0%
same,pest or weed control at 62.5 g/ha,[11]; [14],0%
same,pest or weed control at 250 g/ha,[11]; [15],50%
same,pest or weed control at 15.625 g/ha,[12]; [13],0%
same,pest or weed control at 62.5 g/ha,[12]; [14],0%
same,pest or weed control at 250 g/ha,[12]; [15],50%
